Results published in US5563155A, “Individual stereosiomers of 7-[3-(aminoalkyl)-1-pyrrolidinyl]-quinolones and naphthyridones as antibacterial agents” (Warner-Lambert Company, priority 1995, dated 1996).
Converted amounts (≈) assume the structure as drawn.

Assays:
Assay type in all cases: cell-based
Ent. cloacae MA2646 = assay: in vitro antibacterial activity, microtitration dilution (MIC), Ent. cloacae MA2646; conditions: Enterobacter cloacae, read-out: minimum inhibiting concentration (MIC)
Text: (§1) The in vitro antibacterial activity, is obtained by the microtitration dilution method as described in Heifetz, et al., Antimicr. Agents & Chemother., 6, 124 (1974), which is incorporated herein by reference.
(§2) By use of the above methods, the following minimum inhibiting concentration values (MICs in μg/mL), PD50 's in mg/kg, no effect phototoxicity dose in mg/kg and the cytotoxicity IC50 in μg/mL were obtained for representative enantiomers of the invention and compounds of the prior art as shown in the table.

Esch. coli Vogel = assay: in vitro antibacterial activity, microtitration dilution (MIC), Esch. coli Vogel; conditions: Escherichia coli, read-out: minimum inhibiting concentration (MIC)
Text: as §1, §2

Klebs. pneumoniae MGH-2 = assay: in vitro antibacterial activity, microtitration dilution (MIC), Klebs. pneumoniae MGH-2; conditions: Klebsiella pneumoniae, MGH2, read-out: minimum inhibiting concentration (MIC)
Text: as §1, §2

Prot. rettgeri M 1771 = assay: in vitro antibacterial activity, microtitration dilution (MIC), Prot. rettgeri M 1771; conditions: Providencia rettgeri, M1771, read-out: minimum inhibiting concentration (MIC)
Text: as §1, §2

Pseud. aeruginosa UI-18 = assay: in vitro antibacterial activity, microtitration dilution (MIC), Pseud. aeruginosa UI-18; conditions: Pseudomonas aeruginosa, UI18, read-out: minimum inhibiting concentration (MIC)
Text: as §1, §2

Staph. aureus H 228 = assay: in vitro antibacterial activity, microtitration dilution (MIC), Staph. aureus H 228; conditions: Staphylococcus aureus, H228, read-out: minimum inhibiting concentration (MIC)
Text: as §1, §2

Staph. aureus UC-76 = assay: in vitro antibacterial activity, microtitration dilution (MIC), Staph. aureus UC-76; conditions: Staphylococcus aureus, UC76, read-out: minimum inhibiting concentration (MIC)
Text: as §1, §2

Strep. faecalis MGH-2 = assay: in vitro antibacterial activity, microtitration dilution (MIC), Strep. faecalis MGH-2; conditions: Enterococcus faecalis, MGH2, read-out: minimum inhibiting concentration (MIC)
Text: as §1, §2

Strep. pheumoniae SV-1 = assay: in vitro antibacterial activity, microtitration dilution (MIC), Strep. pneumoniae SV-1; conditions: Streptococcus pneumoniae, SV1, read-out: minimum inhibiting concentration (MIC)
Text: as §1, §2

Strep. pyogenes C-203 = assay: in vitro antibacterial activity, microtitration dilution (MIC), Strep. pyogenes C-203; conditions: Streptococcus pyogenes, C203, read-out: minimum inhibiting concentration (MIC)
Text: as §1, §2

Row | SMILES | MIC (Ent. cloacae MA2646) [µg/mL] | MIC (Esch. coli Vogel) [µg/mL] | MIC (Klebs. pneumoniae MGH-2) [µg/mL] | MIC (Prot. rettgeri M 1771) [µg/mL] | MIC (Pseud. aeruginosa UI-18) [µg/mL] | MIC (Staph. aureus H 228) [µg/mL] | MIC (Staph. aureus UC-76) [µg/mL] | MIC (Strep. faecalis MGH-2) [µg/mL] | MIC (Strep. pheumoniae SV-1) [µg/mL] | MIC (Strep. pyogenes C-203) [µg/mL]
1 | CCN[C@@H](C)[C@@H]1CCN(c2cc3c(c(C)c2F)c(=O)c(C(=O)O)cn3C2CC2)C1 [Example 52, 3R,1S-1-cyclopropyl-7-[3-(1-N-ethylaminoethyl)-1-pyrrolidinyl]-6-fluoro-1,4-dihydro-5-methyl-4-oxo-3-quinolinecarboxylic acid] | 0.4 (≈ 0.996 µM) | 0.4 (≈ 0.996 µM) | 0.4 (≈ 0.996 µM) | 1.6 (≈ 3.99 µM) | 3.1 (≈ 7.72 µM) | 0.05 (≈ 0.125 µM) | 0.013 (≈ 0.0324 µM) | 0.05 (≈ 0.125 µM) | 0.05 (≈ 0.125 µM) | 0.05 (≈ 0.125 µM)
2 | CN[C@H](C)[C@H]1CCN(c2c(F)c(N)c3c(=O)c(C(=O)O)cn(C4CC4)c3c2F)C1 [Example 34, 3S,1R-5-amino-1-cyclopropyl-6,8-difluoro-7-[3-(1-N-methylaminoethyl)-1-pyrrolidinyl]-1,4-dihydro-4-oxo-3-quinolinecarboxylic acid] | 0.4 (≈ 0.984 µM) | 0.4 (≈ 0.984 µM) | 0.8 (≈ 1.97 µM) | 1.6 (≈ 3.94 µM) | 3.1 (≈ 7.63 µM) | 0.8 (≈ 1.97 µM) | 0.4 (≈ 0.984 µM) | 1.6 (≈ 3.94 µM) | 0.8 (≈ 1.97 µM) | 1.6 (≈ 3.94 µM)
3 | CCN[C@@H](C)[C@H]1CCN(c2c(F)cc3c(=O)c(C(=O)O)cn(C4CC4)c3c2OC)C1 [Example 20, 3S,1S-1-cyclopropyl-6-fluoro-7-[3-(1-N-ethylaminoethyl)1-pyrrolidinyl]-8-methoxy-1,4-dihydro-4-oxo-3quinolinecarboxylic acid] | 0.8 (≈ 1.92 µM) | 0.8 (≈ 1.92 µM) | 1.6 (≈ 3.83 µM) | 3.1 (≈ 7.43 µM) | 6.3 (≈ 15.1 µM) | 0.2 (≈ 0.479 µM) | 0.05 (≈ 0.12 µM) | 0.4 (≈ 0.958 µM) | 0.2 (≈ 0.479 µM) | 0.2 (≈ 0.479 µM)
4 | CCOc1c(N2CC[C@@H]([C@H](C)N)C2)c(F)cc2c(=O)c(C(=O)O)cn(C3CC3)c12 [Example 49, 3R,1S-7-[3-(1-aminoethyl)-1-pyrrolidinyl]-1-cyclopropyl-8-ethoxy-6-fluoro-1,4-dihydro-4-oxo-3-quinolinecarboxylic acid] | 0.2 (≈ 0.496 µM) | 0.1 (≈ 0.248 µM) | 0.2 (≈ 0.496 µM) | 0.2 (≈ 0.496 µM) | 1.6 (≈ 3.97 µM) | 0.013 (≈ 0.0322 µM) | ≤ 0.003 | 0.025 (≈ 0.062 µM) | 0.006 (≈ 0.0149 µM) | 0.006 (≈ 0.0149 µM)
5 | C[C@H](N)[C@@H]1CCN(c2c(F)cc3c(=O)c(C(=O)O)cn(C4CC4)c3c2C(F)(F)F)C1 [Example 60, 3R,1S-7-[3-(1-aminoethyl)-1-pyrrolidinyl]-1-cyclopropyl-6-fluoro-1,4-dihydro-4-oxo-8-trifluoromethyl-3-quinolinecarboxylic acid] | 0.2 (≈ 0.468 µM) | 0.2 (≈ 0.468 µM) | 0.2 (≈ 0.468 µM) | 0.4 (≈ 0.936 µM) | 1.6 (≈ 3.74 µM) | 0.013 (≈ 0.0304 µM) | 0.006 (≈ 0.014 µM) | 0.025 (≈ 0.0585 µM) | 0.006 (≈ 0.014 µM) | 0.006 (≈ 0.014 µM)
6 | CCN[C@@H](C)[C@@H]1CCN(c2cc3c(c(C)c2F)c(=O)c(C(=O)O)cn3-c2ccc(F)cc2F)C1 [Example 54, 3R,1S-7-[3-(1-N-ethylaminoethyl)-1-pyrrolidinyl]-1-(2,4-difluorophenyl)-6-fluoro-1,4-dihydro-5-methyl-4-oxo-3-quinolinecarboxylic acid] | 0.4 (≈ 0.845 µM) | 0.4 (≈ 0.845 µM) | 0.8 (≈ 1.69 µM) | 1.6 (≈ 3.38 µM) | 3.1 (≈ 6.55 µM) | 0.025 (≈ 0.0528 µM) | 0.013 (≈ 0.0275 µM) | 0.1 (≈ 0.211 µM) | 0.013 (≈ 0.0275 µM) | 0.013 (≈ 0.0275 µM)
7 | C[C@H]([C@H]1CCN(c2nc3c(cc2F)c(=O)c(C(=O)O)cn3C2CC2)C1)N(C)C [Example 69, 3S,1R-1-cyclopropyl-7-[3-[1-(dimethylamino)ethyl]-1-pyrrolidinyl]-6-fluoro-1,4-dihydro-4-oxo-1,8-naphthyridine-3-carboxylic acid] | 0.1 (≈ 0.257 µM) | 0.1 (≈ 0.257 µM) | 0.2 (≈ 0.515 µM) | 0.4 (≈ 1.03 µM) | 1.6 (≈ 4.12 µM) | 0.05 (≈ 0.129 µM) | 0.006 (≈ 0.0154 µM) | 0.025 (≈ 0.0644 µM) | 0.013 (≈ 0.0335 µM) | 0.025 (≈ 0.0644 µM)
8 | Cc1c(F)c(N2CC[C@@H]([C@@H](C)N)C2)cc2c1c(=O)c(C(=O)O)cn2-c1ccc(F)cc1F [Example 46, 3R,1R-7-[3-(1-aminoethyl)-1-pyrrolidinyl]-1-(2,4-difluorophenyl)-6-fluoro-1,4-dihydro-5-methyl-4-oxo-3-quinolinecarboxylic acid] | 0.2 (≈ 0.449 µM) | 0.2 (≈ 0.449 µM) | 0.4 (≈ 0.898 µM) | 0.4 (≈ 0.898 µM) | 1.6 (≈ 3.59 µM) | 0.025 (≈ 0.0561 µM) | 0.013 (≈ 0.0292 µM) | 0.1 (≈ 0.224 µM) | 0.013 (≈ 0.0292 µM) | 0.013 (≈ 0.0292 µM)
9 | CCN[C@@H](C)[C@@H]1CCN(c2cc3c(c(N)c2F)c(=O)c(C(=O)O)cn3C2CC2)C1 [Example 55, 3R,1S-5-amino-7-[3-(1-N-ethylaminoethyl)-1-pyrrolidinyl]-1-cyclopropyl-6-fluoro-1,4-dihydro-4-oxo-3-quinolinecarboxylic acid] | 0.1 (≈ 0.248 µM) | 0.1 (≈ 0.248 µM) | 0.2 (≈ 0.497 µM) | 0.8 (≈ 1.99 µM) | 1.6 (≈ 3.98 µM) | 0.05 (≈ 0.124 µM) | 0.025 (≈ 0.0621 µM) | 0.05 (≈ 0.124 µM) | 0.013 (≈ 0.0323 µM) | 0.013 (≈ 0.0323 µM)
10 | CN[C@@H](C)[C@@H]1CCN(c2c(F)c(N)c3c(=O)c(C(=O)O)cn(C4CC4)c3c2OC)C1 [Example 56, 3R,1S-5-amino-1-cyclopropyl-6-fluoro-1,4-dihydro-8-methoxy-7-[3-(1-N-methylaminoethyl)-1-pyrrolidinyl]-4-oxo-3-quinolinecarboxylic acid] | 0.2 (≈ 0.478 µM) | 0.1 (≈ 0.239 µM) | 0.2 (≈ 0.478 µM) | 0.4 (≈ 0.956 µM) | 1.6 (≈ 3.82 µM) | 0.013 (≈ 0.0311 µM) | 0.006 (≈ 0.0143 µM) | 0.025 (≈ 0.0597 µM) | 0.006 (≈ 0.0143 µM) | 0.006 (≈ 0.0143 µM)
11 | C[C@@H]([C@H]1CCN(c2nc3c(cc2F)c(=O)c(C(=O)O)cn3C2CC2)C1)N(C)C [Example 70, 3S,1S-1-cyclopropyl-7-[3-[1-(dimethylamino)ethyl]-1-pyrrolidinyl]-6-fluoro-1,4-dihydro-4-oxo-1,8-naphthyridine-3-carboxylic acid] | 0.4 (≈ 1.03 µM) | 0.4 (≈ 1.03 µM) | 0.8 (≈ 2.06 µM) | 3.1 (≈ 7.98 µM) | 12.5 (≈ 32.2 µM) | 0.4 (≈ 1.03 µM) | 0.2 (≈ 0.515 µM) | 0.8 (≈ 2.06 µM) | 0.2 (≈ 0.515 µM) | 0.4 (≈ 1.03 µM)
12 | C[C@H](N)[C@@H]1CCN(c2c(F)c(N)c3c(=O)c(C(=O)O)cn(C4CC4)c3c2F)C1 [Example 58, 3R,1S-5-amino-7-[3-(1-aminoethyl)-1-pyrrolidinyl]-1-cyclopropyl-6,8-difluoro-1,4-dihydro-4-oxo-3-quinolinecarboxylic acid] | 0.013 (≈ 0.0331 µM) | 0.013 (≈ 0.0331 µM) | 0.013 (≈ 0.0331 µM) | 0.025 (≈ 0.0637 µM) | 0.4 (≈ 1.02 µM) | 0.003 (≈ 0.00765 µM) | 0.003 (≈ 0.00765 µM) | 0.003 (≈ 0.00765 µM) | 0.003 (≈ 0.00765 µM) | 0.003 (≈ 0.00765 µM)
13 | COc1c(N2CC[C@@H]([C@H](C)N)C2)c(F)cc2c(=O)c(C(=O)O)cn(C3CC3)c12 [Example 44, 3R,1S-7-[3-(1-aminoethyl)-1-pyrrolidinyl]-1-cyclopropyl-6-fluoro-1,4-dihydro-8-methoxy-4-oxo-3-quinolinecarboxylic acid] | 0.05 (≈ 0.128 µM) | 0.025 (≈ 0.0642 µM) | 0.05 (≈ 0.128 µM) | 0.05 (≈ 0.128 µM) | 0.4 (≈ 1.03 µM) | 0.006 (≈ 0.0154 µM) | ≤ 0.003 | 0.006 (≈ 0.0154 µM) | ≤ 0.003 | ≤ 0.003
